In US10239882B2, “Substituted 5-methyl-[1,2,4]triazolo[1,5-a]pyrimidin-2-amine compounds as PDE2 inhibitors” (DART NEUROSCIENCE (CAYMAN) LTD., priority 2014, dated 2019):
pIC50: −log10 of the molar value.

target: FLAG-tagged PDE2A1 (amino acids 2-941) (Homo sapiens (Human), UniProt O00408); test: IMAP TR-FRET PDE2A enzymatic assay; type: biochemical; conditions: 200 nM FAM-cAMP substrate, 11-point half-log dose-response
Description: An IMAP TR-FRET-based phosphodiesterase assay was developed using the PDE2A isoform. IMAP technology is based on high-affinity binding of phosphate by immobilized metal (MIII) coordination complexes on nanoparticles. The IMAP “binding reagent” recognizes phosphate groups on AMP or GMP generated from cAMP or cGMP in a PDE reaction. Cyclic nucleotides that carry a phosphodiester bond and not a free phosphate are not recognized by the binding reagent. The time resolved fluorescence resonance energy transfer (TR-FRET) is afforded by a Terbium (Tb)-Donor pre-bound to the nanoparticles. FRET occurs when the fluorescent-labeled AMP or GMP product of a PDE reaction binds and comes into close proximity to the Tb-Donor complex. Due to the long lifetime of Tb fluorescence, detection can be run in time-resolved mode to reduce or eliminate interference from auto-fluorescent compounds.
The IMAP TR-FRET PDE2A assay was performed in 1536-well white plates. A total of 250 pg per well of FLAG-tagged PDE2A1 (amino acids 2-941) was dispensed in 2.5 μL IMAP assay buffer consisting of 10 mM Tris pH 7.2, 10 mM MgCl2, 1 mM DTT, and 0.1% fatty acid free BSA. 30 nL of compound was then added from 1 mM stocks in DMSO using a Kalypsys Pintool. Plates were incubated for 5 min at room temperature before dispensing 1.5 μL of 533 nM FAM-cAMP substrate for a final concentration of 200 nM. Following a brief centrifugation, plates were incubated for 30 min at room temperature. The assay was terminated by adding 5 μL IMAP binding reagent Tb complex to each well which was prepared according to manufacturer's recommendations (Molecular Devices). Plates were incubated an additional 90 minutes at room temperature and read on a Viewlux plate reader. All compounds were solvated at a concentration of 10 mM in DMSO and tested in 11-point half-log dose-response. Curve fitting and IC50 values were determined using a standard four parameter fit.

Sequence of FLAG-tagged PDE2A1 (amino acids 2-941) (O00408 2-941): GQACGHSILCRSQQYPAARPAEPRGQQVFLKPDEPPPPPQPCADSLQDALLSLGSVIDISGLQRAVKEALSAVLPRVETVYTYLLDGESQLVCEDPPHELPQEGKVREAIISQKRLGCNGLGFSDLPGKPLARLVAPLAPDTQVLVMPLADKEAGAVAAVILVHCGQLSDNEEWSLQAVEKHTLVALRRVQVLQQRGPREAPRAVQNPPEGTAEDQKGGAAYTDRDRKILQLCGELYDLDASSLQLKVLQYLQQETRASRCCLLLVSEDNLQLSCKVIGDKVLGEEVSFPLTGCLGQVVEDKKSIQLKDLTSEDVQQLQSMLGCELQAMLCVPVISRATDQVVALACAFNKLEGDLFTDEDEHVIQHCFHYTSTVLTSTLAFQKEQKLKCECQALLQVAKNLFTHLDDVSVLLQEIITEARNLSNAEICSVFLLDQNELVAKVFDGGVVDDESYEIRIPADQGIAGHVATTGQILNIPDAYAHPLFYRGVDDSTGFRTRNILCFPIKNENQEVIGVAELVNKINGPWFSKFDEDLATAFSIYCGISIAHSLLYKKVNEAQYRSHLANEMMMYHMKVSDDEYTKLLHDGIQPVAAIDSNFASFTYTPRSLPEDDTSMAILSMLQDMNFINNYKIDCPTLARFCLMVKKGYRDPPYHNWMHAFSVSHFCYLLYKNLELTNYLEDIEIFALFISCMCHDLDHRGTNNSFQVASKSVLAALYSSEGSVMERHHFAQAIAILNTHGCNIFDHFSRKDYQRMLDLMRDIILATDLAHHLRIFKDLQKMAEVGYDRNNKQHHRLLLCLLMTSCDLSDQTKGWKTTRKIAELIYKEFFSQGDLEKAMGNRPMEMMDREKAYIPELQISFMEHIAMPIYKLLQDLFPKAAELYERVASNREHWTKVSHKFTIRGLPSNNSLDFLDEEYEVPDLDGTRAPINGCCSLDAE

| SMILES | PDE2 (PIC50) |
| --- | --- |
| Cc1cc(C2CCOCC2)n2nc(NCc3cc(Cl)ccc3F)nc2n1 [Example 13, N-(5-Chloro-2-fluorobenzyl)-5-methyl-7-(tetrahydro-2H-pyran-4-yl)-[1,2,4]triazolo[1,5-a]pyrimidin-2-amine] | >7 |
| COc1ccc(CNc2nc3nc(C)cc(C4CCOCC4)n3n2)c(F)c1 [Example 15, N-[(2-Fluoro-4-methoxyphenyl)methyl]-5-methyl-7-(oxan-4-yl)-[1,2,4]triazolo[1,5-a]pyrimidin-2-amine] | >7 |
| Cc1cc(C2CCOCC2)n2nc(NCc3cnn(-c4ccccc4)c3)nc2n1 [Example 17, 5-Methyl-7-(oxan-4-yl)-N-[(1-phenyl-1H-pyrazol-4-yl)methyl]-[1,2,4]triazolo[1,5-a]pyrimidin-2-amine] | >7 |
| COc1ccc(CNc2nc3nc(C)cc(C4CCN(C(C)=O)CC4)n3n2)cc1C(F)F [Example 19, 1-{4-[2-({[3-(Difluoromethyl)-4-methoxyphenyl]methyl}amino)-5-methyl-[1,2,4]triazolo[1,5-a]pyrimidin-7-yl]piperidin-1-yl}ethan-1-one] | >7 |
| CC(=O)N1CCC(c2cc(C)nc3nc(NCc4cccc(C(F)F)c4)nn23)CC1 [Example 20, 1-{4-[2-({[3-(Difluoromethyl)phenyl]methyl}amino)-5-methyl-[1,2,4]triazolo[1,5-a]pyrimidin-7-yl]piperidin-1-yl}ethan-1-one] | >7 |
| COc1ccc(CNc2nc3nc(C)cc(C4CCOCC4)n3n2)cc1Cl [Example 21, N-[(3-Chloro-4-methoxyphenyl)methyl]-5-methyl-7-(oxan-4-yl)-[1,2,4]triazolo[1,5-a]pyrimidin-2-amine] | >7 |
| Cc1cc(C2CCOCC2)n2nc(NCc3cccc(C(F)F)c3)nc2n1 [Example 23, N-{[3-(Difluoromethyl)phenyl]methyl}-5-methyl-7-(oxan-4-yl)-[1,2,4]triazolo[1,5-a]pyrimidin-2-amine] | >7 |
| COc1ccc(CNc2nc3nc(C)cc(C4CCOCC4)n3n2)cc1C(F)F [Example 25, N-{[3-(Difluoromethyl)-4-methoxyphenyl]methyl}-5-methyl-7-(oxan-4-yl)-[1,2,4]triazolo[1,5-a]pyrimidin-2-amine] | >7 |
| COc1ccc(CNc2nc3nc(C(F)F)cc(C4CCOCC4)n3n2)cc1 [Example 29, 5-(Difluoromethyl)-N-[(4-methoxyphenyl)methyl]-7-(oxan-4-yl)-[1,2,4]triazolo[1,5-a]pyrimidin-2-amine] | >7 |
| COc1ccc(CNc2nc3nc(CF)cc(C4CCOCC4)n3n2)cc1 [Example 30, 5-(Fluoromethyl)-N-[(4-methoxyphenyl)methyl]-7-(oxan-4-yl)-[1,2,4]triazolo[1,5-a]pyrimidin-2-amine] | >7 |
| COc1cccc(-n2cc(CNc3nc4nc(C)cc(C5CCOCC5)n4n3)cn2)c1 [Example 31, N-{[1-(3-Methoxyphenyl)-1H-pyrazol-4-yl]methyl}-5-methyl-7-(oxan-4-yl)-[1,2,4]triazolo[1,5-a]pyrimidin-2-amine] | >7 |

same assay, conditions: 200 nM FAM-cAMP substrate, 11-point half-log dose-response, read-out: PDE2 (PIC50)

| SMILES | pIC50 |
| --- | --- |
| COc1ccc(CNc2nc3nc(C)cc(C4CCOCC4)n3n2)cc1 [Example 1, N-(4-Methoxybenzyl)-5-methyl-7-(tetrahydro-2H-pyran-4-yl)-[1,2,4]triazolo[1,5-a]pyrimidin-2-amine] | 6.00 to 7.00 |
| Cc1cc(C2CC2)n2nc(NCc3ccc4c(c3)CCO4)nc2n1 [Example 2, 7-Cyclopropyl-N-((2,3-dihydrobenzofuran-5-yl)methyl)-5-methyl-[1,2,4]triazolo[1,5-a]pyrimidin-2-amine] | 5.00 to 6.00 |
| Cc1cc(C2CC2)n2nc(NCc3ccc4c(c3)OCC4)nc2n1 [Example 3, 7-Cyclopropyl-N-((2,3-dihydrobenzofuran-6-yl)methyl)-5-methyl-[1,2,4]triazolo[1,5-a]pyrimidin-2-amine] | 5.00 to 6.00 |
| COc1ccc(CNc2nc3nc(C)cc(C4CC4)n3n2)cc1 [Example 4, 7-Cyclopropyl-N-(4-methoxybenzyl)-5-methyl-[1,2,4]triazolo[1,5-a]pyrimidin-2-amine] | 5.00 to 6.00 |
| Cc1cc(C2CCCC2)n2nc(NCc3ccc4c(c3)CCC4)nc2n1 [Example 5, 7-Cyclopentyl-N-((2,3-dihydro-1H-inden-5-yl)methyl)-5-methyl-[1,2,4]triazolo[1,5-a]pyrimidin-2-amine] | 6.00 to 7.00 |
| Cc1cc(C(C)C)n2nc(NCc3ccc4c(c3)CCC4)nc2n1 [Example 6, N-((2,3-Dihydro-1H-inden-5-yl)methyl)-7-isopropyl-5-methyl-[1,2,4]triazolo[1,5-a]pyrimidin-2-amine] | 6.00 to 7.00 |
| Cc1cc(C(C)C)n2nc(NCc3cccc(Cl)c3)nc2n1 [Example 7, N-(3-Chlorobenzyl)-7-isopropyl-5-methyl-[1,2,4]triazolo[1,5-a]pyrimidin-2-amine] | 5.00 to 6.00 |
| Cc1cc(C(C)C)n2nc(NCc3ccccc3)nc2n1 [Example 8, N-Benzyl-7-isopropyl-5-methyl-[1,2,4]triazolo[1,5-a]pyrimidin-2-amine] | 5.00 to 6.00 |
| Cc1cc(C(C)(C)C)n2nc(NCc3cccc(Cl)c3)nc2n1 [Example 9, 7-(tert-Butyl)-N-(3-chlorobenzyl)-5-methyl-[1,2,4]triazolo[1,5-a]pyrimidin-2-amine] | 6.00 to 7.00 |
| COc1ccc(CNc2nc3nc(C)cc(C(C)C)n3n2)cc1 [Example 10, 7-Isopropyl-N-(4-methoxybenzyl)-5-methyl-[1,2,4]triazolo[1,5-a]pyrimidin-2-amine] | 5.00 to 6.00 |
| CCC(C)c1cc(C)nc2nc(NCc3ccc(OC)cc3)nn12 (stereo not shown) [Example 11, 7-(sec-butyl)-N-(4-Methoxybenzyl)-5-methyl-[1,2,4]triazolo[1,5-a]pyrimidin-2-amine] | 6.00 to 7.00 |
| COc1ccc(CNc2nc3nc(C)cc(C4CCCO4)n3n2)cc1 (stereo not shown) [Example 12, N-(4-Methoxybenzyl)-5-methyl-7-(tetrahydrofuran-2-yl)-[1,2,4]triazolo[1,5-a]pyrimidin-2-amine] | 5.00 to 6.00 |
| Cc1cc(C2CCOCC2)n2nc(NCc3cc(F)cc(F)c3)nc2n1 [Example 14, N-[(3,5-Difluorophenyl)methyl]-5-methyl-7-(oxan-4-yl)-[1,2,4]triazolo[1,5-a]pyrimidin-2-amine] | 6.00 to 7.00 |
| Cc1cc(C2CCOCC2)n2nc(NCc3ccc4c(c3)OCCO4)nc2n1 [Example 16, N-(2,3-Dihydro-1,4-benzodioxin-6-ylmethyl)-5-methyl-7-(oxan-4-yl)-[1,2,4]triazolo[1,5-a]pyrimidin-2-amine] | 6.00 to 7.00 |
| COc1ccc(CNc2nc3nc(C)cc(C4CCN(C(C)=O)CC4)n3n2)cc1 [Example 18, 1-[4-(2-[(4-Methoxyphenyl)methyl]amino-5-methyl-[1,2,4]triazolo[1,5-a]pyrimidin-7-yl)piperidin-1-yl]ethan-1-one] | 6.00 to 7.00 |
| COc1ccc(CNc2nc3nc(C)cc(C4CCC(F)(F)CC4)n3n2)cc1 [Example 22, 7-(4,4-Difluorocyclohexyl)-N-[(4-methoxyphenyl)methyl]-5-methyl-[1,2,4]triazolo[1,5-a]pyrimidin-2-amine] | 6.00 to 7.00 |
| COc1cccc(CNc2nc3nc(C)cc(C4CCOCC4)n3n2)c1 [Example 24, N-[(3-Methoxyphenyl)methyl]-5-methyl-7-(oxan-4-yl)-[1,2,4]triazolo[1,5-a]pyrimidin-2-amine] | 6.00 to 7.00 |
| Cc1cc(C2CCOCC2)n2nc(NCc3ccccc3F)nc2n1 [Example 26, N-[(2-Fluorophenyl)methyl]-5-methyl-7-(oxan-4-yl)-[1,2,4]triazolo[1,5-a]pyrimidin-2-amine] | 6.00 to 7.00 |
| Cc1ccc(F)c(CNc2nc3nc(C)cc(C4CCOCC4)n3n2)c1 [Example 27, N-[(2-Fluoro-5-methylphenyl)methyl]-5-methyl-7-(oxan-4-yl)-[1,2,4]triazolo[1,5-a]pyrimidin-2-amine] | 6.00 to 7.00 |
| Cc1cccc(CNc2nc3nc(C)cc(C4CCOCC4)n3n2)c1 [Example 28, 5-Methyl-N-[(3-methylphenyl)methyl]-7-(oxan-4-yl)-[1,2,4]triazolo[1,5-a]pyrimidin-2-amine] | 6.00 to 7.00 |
| COc1ccc(F)c(CNc2nc3nc(C)cc(C4CCOCC4)n3n2)c1 [Example 32, N-[(2-Fluoro-5-methoxyphenyl)methyl]-5-methyl-7-(oxan-4-yl)-[1,2,4]triazolo[1,5-a]pyrimidin-2-amine] | 6.00 to 7.00 |
| Cc1cc(C2CCOCC2)n2nc(NCc3ccccc3)nc2n1 [Example 33, N-Benzyl-5-methyl-7-(oxan-4-yl)-[1,2,4]triazolo[1,5-a]pyrimidin-2-amine] | 6.00 to 7.00 |
| COc1ccc(CNc2nc3nc(C)cc(C4(C)CCOCC4)n3n2)cc1 [Example 34, N-[(4-Methoxyphenyl)methyl]-5-methyl-7-(4-methyloxan-4-yl)-[1,2,4]triazolo[1,5-a]pyrimidin-2-amine] | 6.00 to 7.00 |
